# Experimental data published in US7943660B2, “Inhibitors of the LFA-1/ICAM-1 interaction and uses thereof” (Dominion Pharmakine S.L., priority 2005, dated 2011).
# Experiments:
# [1] = system: 51b murine colon carcinoma (51b-CC) cell adhesion to HSE cells; assay: 51b colon carcinoma cell adhesion to HSE cells; type: cell-based; conditions: 51b cells, FIG. 6A
# Protocol: Time-dependent adhesion assays was carried out on a quantitative basis according to previous validated bioassays (Vidal-Vanaclocha et al., Cancer Research, 1994, 54(10):2667-72). For tumor cell pre-labelling, they were allowed to accumulate the non-fluorescent sterase substrate BCECF-AM and to hydrolyze it to its fluorescent product BCECF which becomes trapped inside living cells. To do this, 50 μg of BCECF-AM were diluted in dry DMSO (5 μl) and DME medium until […] (40 μg/ml).
# Tumor cells (5×10^6) were incubated in BCECF-AM solution at 37° C. for 30 min. After gently washing, tumor cells were resuspended in fresh medium (DMEM without phenol red) at a concentration of 2×10^6 cells/ml.
# Twenty-four hours post-plating, primary cultured hepatic sinusoidal endothelial (HSE) cells were also used for adhesion assay. To determine the basal autofluorescence per well, plates were read on a fluorometric microplate reader (Multiskan Ascent, Thermo Labsystems) using 485/22 nm excitation and the 530/25 nm emission filter. Then, 2×10^5 labeled tumor cells were added to each well of HSE cells and to collagen pre-coated control wells.
# However, in order to determine the exact number of cells in each well, co-culture plates were read for a second time. Then, plates were incubated at 37° C. […]
# [2] = system: Human peripheral blood lymphocyte (PBL) adhesion to immobilized human recombinant ICAM-1; assay: Human PBL adhesion assay to immobilized recombinant human ICAM-1; type: cell-based; conditions: PBLs 100 ng/ml PMA 30 min, then HC0303 20 μg/5×10^5 cells for 30 min; FIG. 7; P<0.01
# Protocol: Ninety six-well plates were coated with 2 μg/ml recombinant human ICAM-1 (R&D Systems, Minneapolis, Minn.) at 4° C. overnight. Nonspecific binding sites on plastic were blocked by treating the wells with 100 μl of PBS containing 0.5% BSA for 2 h at room temperature. Isolated human PBLs were incubated with either basal medium or 100 ng/ml PMA for 30 min. Then, PBLs were BCECF-AM-labeled and after washing, the compound HC0303 (20 μg/5×10^5 cells) was added for 30 min.
# For adhesion assay, PBLs (5×10^4 per well) were added to quadruplicate wells. Then, plates were incubated for 1 hour at 37° C. before unattached cells were removed by washing three times with fresh medium. The number of adhering cells was determined using the same quantitative fluorescence measurement system as above described.
# That this anti-adhesive effect of compound HC0303 is due to LFA-1/ICAM-1 interaction blockade was further confirmed along a lymphocyte adhesion assay to immobilized ICAM-1 substrate. Cultured PBLs were incubated with either basal medium or 100 ng/ml PMA for 30 min. Then, PBLs were BCECF-AM-labeled and after washing, compound HC0303 (20 μg/5×10^5 cells) was added for 30 minutes prior to the adhesion assay to a ICAM-1-coated plate. […] The results are the mean ±SD of three separate experiments, each in sextuplicate (n=18). […]
# [3] = system: VEGF production by B16M cells; assay: Measurement of VEGF production by B16M cells in response to soluble ICAM-1 and H2O2 (ELISA); type: cell-based, murine; conditions: 10 μg/ml HC0303 30 min prior to 200 ng/ml sICAM-1, then DMEM or 10 μM H2O2 for 2 hours; FIG. 8; P<0.01
# Protocol: Cultured B16M cells were incubated for 30 min with 200 ng/ml soluble ICAM-1 prior to either basal medium (DMEM) or 10 μM H2O2. Some cells were pre-incubated with 1 μg/ml anti-murine LFA-1 monoclonal antibody or 10 μg/ml compound HC0303 for 30 min before ICAM-1 addition. After 2 hours, supernatants were collected, centrifuged at 1,000 g for 10 min and subjected to 0.22 μm filtration.
# The addition of either 1 μg/ml anti-murine LFA-1 monoclonal antibody or 10 μg/ml compound HC0303 for 30 minutes prior to sICAM-1 abrogated induced VEGF production (FIG. 8). Data represent the mean ±SD of two separate experiments; differences in VEGF production in treated versus untreated cells (*) and ICAM-1/H2O2-treated cells were statistically significant (P<0.01) by ANOVA and Bonferroni's post-hoc test.
# Co26-CC cells = assay: Viability of Co26-CC cells after in vitro pretreatment; type: cell-based, murine; conditions: in vitro cancer cell pretreatment with HC0303
structure (smiles),measurement,setting,value
"CC[C@H](C)C(OCc1ccccc1)[C@@H]1[C@H]([N+](=O)[O-])[C@H](c2ccccc2)N[C@]1(C)C(=O)NCCC(=O)O (stereo partly drawn) [HC0303, 3-[(2S,3R,4S,5S)-3-[(2S)-1-(Benzyloxy)-2-methylbutyl]-2-methyl-4-nitro-5-phenylpyrrolidine-2-carboxamido]propanoic acid]",PMA-induced cancer cell adhesion to HSE cells,"[1]; 100 ng/ml PMA 30 min, then HC0303 20 μg/5×10^5 cells for 30 min, P<0.01",significantly decreased
same,adhesion to untreated HSE cells (no PMA),[1]; HC0303 20 μg/5×10^5 cells for 30 min,did not affect
same,PMA-induced adhesion of PBLs to immobilized human recombinant ICAM-1,[2],significantly decreased
same,induced VEGF production (sICAM-1 / H2O2),[3],abrogated
same,Cell viability of Co26-CC cells,Co26-CC cells,without Affecting Cell Viability
same,melting point,,104 to 105 °C
